Results taken from US20210361638A1, “FXR AGONISTS FOR THE TREATMENT OF LIVER DISEASES” (NOVARTIS AG, priority 2017, published 2021).
“Also recorded” adds a separate entry of the source.

Columns and labels:
NASH subjects = conditions: FLINT trial; placebo-treated patients 6%; cited from earlier work
dogs = assay: Oral gavage toxicity studies in dogs for up to 39 weeks
STAM mice = assay: STAM mouse model of NASH; conditions: for NAFLD activity score (NAS): doses 0.1 and 0.3 mg/kg, qd orally weeks 9-12; for Sirius Red-positive areas (pericellular fibrosis): tropifexor 0.03, 0.1, 0.3 mg/kg; for liver triglycerides: tropifexor qd orally weeks 9-12
Procedure: Further experiments in the STAM model were performed: 2-day old male C57Bl/6J mice were injected with streptozotocin and placed on a high-fat diet (HFD) from weeks 4-12 (HFD-32; CLEA-Japan, Tokyo, Japan). […] Hematoxylin & eosin (H&E)-stained sections were evaluated for nonalcoholic fatty liver disease (NAFLD) activity score (NAS) according to previously defined criteria.
Liver sections were fixed in 4% paraformaldehyde for 48 h and shipped for histopathological analysis.

[1] = tested on: ANIT-induced cholestatic rats; assay: ANIT-induced cholestasis rat model; type: in vivo, Sprague-Dawley (SD) rats
Procedure: Experimental protocols were approved by the local Animal Care and Use Committee and were in compliance with Animal Welfare Act regulations and US regulation (Guide for the Care and Use of Laboratory Animals). […] . The tropifexor-treated rats were sacrificed at 1 and 7 h (n=3/time point) and OCA-treated rats were sacrificed at 1, 3, and 7 h (n=3/time point) after the final dose on day 14 for analysis of target gene expression and serum biomarkers. […] .

FGR5 = FGR5 effects (specificity)
NASH mice = assay: Diet-induced (AMLN diet) insulin-resistant NASH mouse model; type: in vivo, C57B16 mice
Source text: A separate model for diet-induced NASH was developed as described by Trevaskis et al. Male C57B16 mice aged […] were maintained on a high fat (40% kcal; Primex), high fructose (22% by weight), and high cholesterol (2% by weight) diet (Research Diets Inc., New Brunswick, N.J. cat. no. D09100301) for 26 weeks to induce NASH. Control animals received low-fat diet (10% kcal) with no fructose or cholesterol (Research Diets, cat. no. D09100304). […] . Expression of collagen, type I, alpha 1 (Col1a1) and tissue inhibitor of metalloproteinase 1 (Timp1) genes was analyzed by real time quantitative PCR.

[2] = Exposure and exploratory exposure-response analysis in NASH patients; type: in vivo, human
FGF19 = assay: Pharmacodynamic marker FGF19 with increasing doses; type: in vivo; conditions: increasing doses up to 3000 μg

Structure (SMILES): CC[C@H]1[C@@H](O)[C@@H]2[C@H](CC[C@]3(C)[C@@H]([C@H](C)CCC(=O)O)CC[C@@H]23)[C@@]2(C)CC[C@@H](O)C[C@@H]12 [OCA, 6α-ethyl-chenodeoxycholic acid]
- patients with pruritus (NASH subjects): 23%

Structure (SMILES): O=C(O)c1cc(F)c2nc(N3C4CC[C@H]3C[C@H](OCc3c(-c5ccccc5OC(F)(F)F)noc3C3CC3)C4)sc2c1 [tropifexor, 2-[(1R,3r,5S)-3-({5-cyclopropyl-3-[2-(trifluoromethoxy)phenyl]-1,2-oxazol-4-yl}methoxy)-8-azabicyclo[3.2.1]octan-8-yl]-4-fluoro-1,3-benzothiazole-6-carboxylic acid]
- Mean AUC0-24 h at which hepatocellular hypertrophy was adverse (dogs; females): 507 ng·h/mL
- Mean AUC0-24 h at which hepatocellular hypertrophy was adverse (dogs; males): 898 ng·h/mL
- Plasma cholesterol levels (STAM mice; FIG. 2 legend): significantly reduced
- NAFLD activity score (NAS) (STAM mice): significantly reduced
- NAFLD activity score (NAS) (STAM mice; listed as LJN452): significant decrease
- fibrosis area in comparison with baseline group (STAM mice; mouse, in vivo): decreased
- resolution of the NASH phenotype, comparison with OCA (STAM mice; mouse, in vivo): more effectively than OCA
- Sirius Red-positive areas (pericellular fibrosis) (STAM mice): significantly reduced
- Sirius Red-positive areas (pericellular fibrosis) (STAM mice; listed as Tropifexor): statistically significant dose-dependent reduction
- liver triglycerides (STAM mice): significantly reduced
- liver triglycerides (STAM mice; listed as LJN452): reduction
- quantitation of collagen deposition (fibrosis) ([1]; FIG. 1D, vs vehicle-treated ANIT livers): significantly decreased
- serum biochemistry parameters, liver damage, and fibrosis ([1]; FIG. 1 legend): improves
- collagen deposition and liver fibrosis ([1]; chronic ANIT treatment, FIG. 1C): highly reduced
- AST, ALT, total BAs, total bilirubin, and GGT levels ([1]; doses as low as 0.3 mg/kg, oral qd 5 days, vs vehicle-treated ANIT rats): marked reduction
- reduction of cholestatic disease markers, comparison with OCA ([1]; rat, in vivo): more effective than OCA
- liver histology: necrosis of the bile duct epithelium, bile duct hyperplasia, inflammatory cell infiltrates ([1]; vs vehicle-treated cholestatic rats, 0.03, 0.3, 1 mg/kg): dose-dependent improvement
- FGR5 effects (FGR5): no FGR5 effects
- hepatic crown-like structures (NASH mice; mid- and high dose tropifexor): completely eliminated
- ALT and AST levels (NASH mice; mid-dose level): normalized
- collagen deposition in liver (fibrosis), Trichrome staining (NASH mice; mouse, in vivo): strongly abrogates; also recorded: reverses
- steatosis by quantification of liver triglycerides (NASH mice; mouse, in vivo): Dose-dependent reduction
- mRNA levels of fibrogenic markers Col1a1 and TIMP1 (NASH mice; real time quantitative PCR): dramatically reduced
- ALT and AST (NASH mice; relative to vehicle-treated controls, 4 weeks qd orally): dose-dependent reduction
- liver inflammation, steatosis, and fibrosis (NASH mice; therapeutic mode): resolved
- predicted exposure in NASH patients ([2]; 200 μg daily): approximately 80 ng·hr/ml
- exposure level in NASH patients ([2]; at 200 μg): 80 ng·h/mL
- pharmacodynamic marker FGF19 (FGF19): continues to rise
